According to article PMC3858566, “Identification of a novel peptide that blocks basic fibroblast growth factor-mediated cell proliferation” (Oncotarget, 2013):
Each block holds one molecule with its values, some of them ahead of it. Where no end group is shown, it is not given here.

Columns and labels:
[1] = test system: B16-F10 murine melanoma cells; details: 48 h, 10 nM
Experimental: Cells were seeded in 96-well plates (5 × 10^3 cells/well) in DMEM containing 10% FBS. After incubation at 37°C for 24 h, the culture medium was replaced by DMEM containing 0.4% FBS to starve the cells for 24 h. The medium was then replaced by DMEM containing 30 ng/ml bFGF, or 30 ng/mL bFGF plus peptide at various concentrations. After culturing for 48 h, the number of viable cells was determined by the methylthiazoletetrazolium (MTT) method as previously described [5].

[2] = test system: bFGF receptors on Balb/c 3T3 cells; assay: Receptor binding assay (125I-bFGF competition, Scatchard analysis)
Experimental: The recombinant bFGF was iodinated by the modified chloramine-T method. Briefly, bFGF (5 μg/50 μ1 in 0.5 M phosphate buffer, pH 7.4) was incubated with chloramine-T (20 μg/10 µl of phosphate buffer) and ^125I-labeled sodium (1.12 mCi/10 μ1) at room temperature for 55 sec. The reaction was immediately terminated by the addition of sodium metabisulflte (250 μg/200 μl) and 1% potassium iodide (100 μl), and the mixture was applied to a Sephadex G-50 column (1×20 cm) preequilibrated in 50 mM phosphate buffer containing 0.1% BSA to separate ^125I-labeled bFGF from free ^125I.
Confluent Balb/c 3T3 cells (0.5×10^6/well) were incubated with binding buffer (DMEM, 20mM HEPES, pH7.4) containing ^125I-bFGF (50000 cpm) and different concentrations of unlabeled ligand (bFGF or the synthetic peptide) for 2.5 h at 4°C. For nonspecific binding, cells were incubated with ^125I-bFGF (50000 cpm) and an excess of unlabeled bFGF (200 nM). The cells were washed with (3 × 1 ml) cold PBS (50 mM, PH7.4), and lysed with 1% Triton X-100 (500 μl). The radioactivity of the extracts was measured in a γ counter. Specific binding was determined as the difference between total and nonspecific binding, and data were analyzed by Scatchard analysis.

B16-F10 cells = assay: Flow cytometric analysis of cell cycle; format: cell-based, murine; details: 48 h
Experimental: Cells were starved for 24 h, and treated with 30 ng/ml bFGF or 30 ng/mL bFGF plus serially-diluted peptides for 48 h. After fixing in 70% ice-cold ethanol for 30 min at 4 °C and washing with PBS for 3 times, cells were stained with propidium iodide (PI) in the dark at room temperature for 30 min. The ModFit DNA analysis program was applied to analyze the percentages of cells at various phases of the cell cycle.

[3] = test system: bFGF receptors on Balb/c 3T3 cells; details: range of values previously published; cited from earlier work
[4] = target: T1, bFGF receptors (FGFR1c/FGFR2c on Balb/c 3T3 cells) (Mus musculus, UniProt P16092); assay: 125I-bFGF competition binding on cells
T1 chain: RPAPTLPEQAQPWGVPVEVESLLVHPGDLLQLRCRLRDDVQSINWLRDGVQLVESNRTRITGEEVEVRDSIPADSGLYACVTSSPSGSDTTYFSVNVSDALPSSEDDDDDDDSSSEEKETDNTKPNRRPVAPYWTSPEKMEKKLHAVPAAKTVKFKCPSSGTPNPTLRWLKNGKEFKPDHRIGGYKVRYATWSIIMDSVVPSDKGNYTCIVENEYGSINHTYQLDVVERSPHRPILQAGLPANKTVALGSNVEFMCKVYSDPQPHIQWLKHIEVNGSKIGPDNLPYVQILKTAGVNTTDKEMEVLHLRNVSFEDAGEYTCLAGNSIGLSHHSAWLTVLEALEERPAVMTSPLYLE

[5] = 30 ng/ml bFGF alone, mean ± SD of 3 independent experiments

Molecule: LSPPRYPGGGS-NH2 [P9 peptides]
- inhibition of bFGF-stimulated proliferation [1]: ~90%

Molecule: ^125I-bFGF: recombinant bFGF iodinated by the modified chloramine-T method
- receptor population, 125I-bFGF binding, without P9 [2]: approximately 9,600 sites/cell

Molecule: basic fibroblast growth factor [bFGF]
- G0/G1 (B16-F10 cells; [5]): 26.45 ± 1.01%
- G2/M (B16-F10 cells; [5]): 7.46 ± 0.56%
- S (B16-F10 cells; 30 ng/ml bFGF alone, mean ± SD of 3 independent experiments, * P<0.01 vs control group): 66.09 ± 1.22%
- effect of bFGF on cell cycle (B16-F10 cells; bFGF alone, 30 ng/ml): significantly increased the percentage of S phase cells, and decreased the ratio of G0/G1 phase cells
- receptor sites per cell of high affinity bFGF receptors, previously published [3]: 0.2-10 ×10^4 sites/cell

- IC50 [4]: ~2.5 nM
Molecule: LSPPRYPGGGS-NH2 [P9 peptide]
